Test: Solubility in 0.1 M phosphate buffer at pH 7
Type: physicochemical
Details: 0.1 M phosphate buffer at pH 7, 10 mg/mL final peptide concentration, shaking 2 hours at room temperature, peptides as TFA-salts; measured sample pH 6.5-7.0; read-out: Solubility
Protocol: Peptides (as TFA-salts) were weighed out in a filter unit (Mini-UniPrep Syringeless Filter 0.45 μm, Whatman PVDF), and 0.1 M phosphate buffer at pH 7 was added to achieve 10 mg/mL final peptide concentration. The peptides were dissolved by shaking the filter units horizontally at 600 rpm for 2 hours at room temperature. Samples were then filtered to remove any insoluble particles. Controls were prepared by weighing out the corresponding peptide solid material and dissolving it in an appropriate vehicle (e.g. ACN:H2O) to a final concentration of 1 mg/mL. Both, the control and sample were analyzed by reversed phase chromatography. The area under the peak of the sample was compared to the control and the solubility was calculated based on that ratio. The pH was measured and recorded for each sample.

Row | Compound | solubility
1 | CC[C@H](C)[C@H](NC(=O)[C@H](CC(C)C)NC(=O)[C@H](Cc1c[nH]cn1)NC(=O)[C@H](CCCNC(=N)N)NC(=O)[C@@H](NC(=O)[C@H](Cc1ccccc1)NC(=O)[C@H](C)NC(=O)C(C)(C)NC(=O)[C@H](C)NC(=O)[C@H](C)NC(=O)[C@H](CCC(N)=O)NC(=O)[C@H](CCCCN)NC(=O)[C@H](CCC(=O)O)NC(=O)[C@H](CC(C)C)NC(=O)C(C)(C)NC(=O)[C@@H](NC(=O)[C@H](CO)NC(=O)[C@H](Cc1ccc(O)cc1)NC(=O)[C@H](CC(=O)O)NC(=O)[C@H](CO)NC(=O)[C@@H](NC(=O)[C@H](Cc1ccccc1)NC(=O)[C@@H](NC(=O)CNC(=O)[C@H](CCC(=O)O)NC(=O)C(C)(C)NC(=O)[C@@H](N)Cc1ccc(O)cc1)[C@@H](C)O)[C@@H](C)O)[C@@H](C)CC)C(C)C)C(=O)N[C@@H](CC(N)=O)C(=O)N[C@@H](CCCCNC(=O)[C@@H](N)CCCCNC(=O)CC[C@H](NC(=O)CC[C@H](NC(=O)CC[C@H](NC(=O)CC[C@H](NC(=O)CC[C@H](NC(=O)CC[C@H](NC(=O)CCCCCCCCCCCCCCCCC(=O)O)C(=O)O)C(=O)O)C(=O)O)C(=O)O)C(=O)O)C(=O)O)C(=O)NC(C)(C)C(=O)N[C@H](C(=O)N[C@@H](CCCNC(=N)N)C(=O)N[C@@H](CCC(N)=O)C(=O)N[C@@H](CCCNC(=N)N)C(=O)N[C@@H](Cc1ccc(O)cc1)C(N)=O)[C@@H](C)O [Compound 111, Y-Aib-E-G-T-F-T-S-D-Y-S-I-Aib-L-E-K-Q-A-A-Aib-A-F-V-R-H-L-I-N-K(1,3)-Aib-T-R-Q-R-Y-NH2.C18DA-gGlu-gGlu-gGlu-gGlu-gGlu-gGlu-eLys(1,2)] | 4000 µg/mL
2 | CC[C@H](C)[C@H](NC(=O)[C@H](CC(C)C)NC(=O)[C@H](Cc1c[nH]cn1)NC(=O)[C@H](CCCNC(=N)N)NC(=O)[C@@H](NC(=O)[C@H](Cc1ccccc1)NC(=O)[C@H](C)NC(=O)C(C)(C)NC(=O)[C@H](CCC(N)=O)NC(=O)[C@H](C)NC(=O)[C@H](CCC(N)=O)NC(=O)[C@H](CCCCN)NC(=O)[C@H](CCC(=O)O)NC(=O)[C@H](CC(C)C)NC(=O)C(C)(C)NC(=O)[C@H](CCC(=O)O)NC(=O)[C@H](CO)NC(=O)[C@H](Cc1ccc(O)cc1)NC(=O)[C@H](CC(=O)O)NC(=O)[C@H](CO)NC(=O)[C@@H](NC(=O)[C@H](Cc1ccccc1)NC(=O)[C@@H](NC(=O)CNC(=O)[C@H](CCC(=O)O)NC(=O)C(C)(C)NC(=O)[C@@H](N)Cc1ccc(O)cc1)[C@@H](C)O)[C@@H](C)O)C(C)C)C(=O)N[C@@H](CC(N)=O)C(=O)N[C@@H](CCCCNC(=O)[C@@H](N)CCCCNC(=O)CC[C@H](NC(=O)CC[C@H](NC(=O)CC[C@H](NC(=O)CC[C@H](NC(=O)CC[C@H](NC(=O)CC[C@H](NC(=O)CCCCCCCCCCCCCCCCC(=O)O)C(=O)O)C(=O)O)C(=O)O)C(=O)O)C(=O)O)C(=O)O)C(=O)NC(C)(C)C(=O)N[C@H](C(=O)N[C@@H](CCCNC(=N)N)C(=O)N[C@@H](CCC(N)=O)C(=O)N[C@@H](CCCNC(=N)N)C(=O)N[C@@H](Cc1ccc(O)cc1)C(N)=O)[C@@H](C)O [Compound 112, Y-Aib-E-G-T-F-T-S-D-Y-S-E-Aib-L-E-K-Q-A-Q-Aib-A-F-V-R-H-L-I-N-K(1,3)-Aib-T-R-Q-R-Y-NH2.C18DA-gGlu-gGlu-gGlu-gGlu-gGlu-gGlu-eLys(1,2)] | 4400 µg/mL
3 | CC[C@H](C)[C@H](NC(=O)[C@H](CC(C)C)NC(=O)[C@H](Cc1c[nH]cn1)NC(=O)[C@H](CCCNC(=N)N)NC(=O)[C@@H](NC(=O)[C@H](Cc1ccccc1)NC(=O)[C@H](C)NC(=O)C(C)(C)NC(=O)[C@H](CCC(N)=O)NC(=O)[C@H](C)NC(=O)[C@H](CCC(N)=O)NC(=O)[C@H](CCCCN)NC(=O)[C@H](CCC(=O)O)NC(=O)[C@H](CC(C)C)NC(=O)C(C)(C)NC(=O)[C@@H](NC(=O)[C@H](CO)NC(=O)[C@H](Cc1ccc(O)cc1)NC(=O)[C@H](CC(=O)O)NC(=O)[C@H](CO)NC(=O)[C@@H](NC(=O)[C@H](Cc1ccccc1)NC(=O)[C@@H](NC(=O)CNC(=O)[C@H](CCC(=O)O)NC(=O)C(C)(C)NC(=O)[C@@H](N)Cc1ccc(O)cc1)[C@@H](C)O)[C@@H](C)O)[C@@H](C)CC)C(C)C)C(=O)N[C@@H](CC(N)=O)C(=O)N[C@@H](CCCCNC(=O)[C@@H](N)CCNC(=O)CC[C@H](NC(=O)CC[C@H](NC(=O)CC[C@H](NC(=O)CC[C@H](NC(=O)CC[C@H](NC(=O)CC[C@H](NC(=O)CCCCCCCCCCCCCCCCC(=O)O)C(=O)O)C(=O)O)C(=O)O)C(=O)O)C(=O)O)C(=O)O)C(=O)NC(C)(C)C(=O)N[C@H](C(=O)N[C@@H](CCCNC(=N)N)C(=O)N[C@@H](CCC(N)=O)C(=O)N[C@@H](CCCNC(=N)N)C(=O)N[C@@H](Cc1ccc(O)cc1)C(N)=O)[C@@H](C)O [Compound 120, Y-Aib-E-G-T-F-T-S-D-Y-S-I-Aib-L-E-K-Q-A-Q-Aib-A-F-V-R-H-L-I-N-K(1,3)-Aib-T-R-Q-R-Y-NH2.C18DA-gGlu-gGlu-gGlu-gGlu-gGlu-gGlu-gDab(1,2)] | 4700 µg/mL

Further lines, results first:

Row | solubility | Compound
4 | 9200 µg/mL | CC[C@H](C)[C@H](NC(=O)[C@H](CC(C)C)NC(=O)[C@H](Cc1c[nH]cn1)NC(=O)[C@H](CCCNC(=N)N)NC(=O)[C@@H](NC(=O)[C@H](Cc1ccccc1)NC(=O)[C@H](C)NC(=O)C(C)(C)NC(=O)[C@H](CCC(N)=O)NC(=O)[C@H](C)NC(=O)[C@H](CCC(N)=O)NC(=O)[C@H](CCC(=O)O)NC(=O)[C@H](CC(=O)O)NC(=O)[C@H](CC(C)C)NC(=O)C(C)(C)NC(=O)[C@@H](NC(=O)[C@H](CO)NC(=O)[C@H](Cc1ccc(O)cc1)NC(=O)[C@H](CC(=O)O)NC(=O)[C@H](CO)NC(=O)[C@@H](NC(=O)[C@H](Cc1ccccc1)NC(=O)[C@@H](NC(=O)CNC(=O)[C@H](CCC(=O)O)NC(=O)C(C)(C)NC(=O)[C@@H](N)Cc1ccc(O)cc1)[C@@H](C)O)[C@@H](C)O)[C@@H](C)CC)C(C)C)C(=O)N[C@@H](CC(N)=O)C(=O)N[C@@H](CCCCNC(=O)[C@@H](N)CCCCNC(=O)CC[C@H](NC(=O)CC[C@H](NC(=O)CC[C@H](NC(=O)CC[C@H](NC(=O)CC[C@H](NC(=O)CCCCCCCCCCCCCCCCC(=O)O)C(=O)O)C(=O)O)C(=O)O)C(=O)O)C(=O)O)C(=O)NC(C)(C)C(=O)N[C@H](C(=O)N[C@@H](CCCNC(=N)N)C(=O)N[C@@H](CCC(N)=O)C(=O)N[C@@H](CCCNC(=N)N)C(=O)N[C@@H](Cc1ccc(O)cc1)C(N)=O)[C@@H](C)O [Compound 108, Y-Aib-E-G-T-F-T-S-D-Y-S-I-Aib-L-D-E-Q-A-Q-Aib-A-F-V-R-H-L-I-N-K(1,3)-Aib-T-R-Q-R-Y-NH2.C18DA-gGlu-gGlu-gGlu-gGlu-gGlu-eLys(1,2)]
5 | 800 µg/mL | CC[C@H](C)[C@H](NC(=O)[C@H](CC(C)C)NC(=O)[C@H](Cc1c[nH]cn1)NC(=O)[C@H](CCCNC(=N)N)NC(=O)[C@@H](NC(=O)[C@H](Cc1ccccc1)NC(=O)[C@H](C)NC(=O)C(C)(C)NC(=O)[C@H](CCC(N)=O)NC(=O)[C@H](C)NC(=O)[C@H](CCC(N)=O)NC(=O)[C@H](CCCCN)NC(=O)[C@H](CCC(=O)O)NC(=O)[C@H](CC(C)C)NC(=O)C(C)(C)NC(=O)[C@@H](NC(=O)[C@H](CO)NC(=O)[C@H](Cc1ccc(O)cc1)NC(=O)[C@H](CC(=O)O)NC(=O)[C@H](CO)NC(=O)[C@@H](NC(=O)[C@H](Cc1ccccc1)NC(=O)[C@@H](NC(=O)CNC(=O)[C@H](CCC(=O)O)NC(=O)C(C)(C)NC(=O)[C@@H](N)Cc1ccc(O)cc1)[C@@H](C)O)[C@@H](C)O)[C@@H](C)CC)C(C)C)C(=O)N[C@@H](CC(N)=O)C(=O)N[C@@H](CCCCNC(=O)COCCOCCNC(=O)CC[C@H](NC(=O)CC[C@H](NC(=O)CC[C@H](NC(=O)CC[C@H](NC(=O)CCCCCCCCCCCCCCCCC(=O)O)C(=O)O)C(=O)O)C(=O)O)C(=O)O)C(=O)NC(C)(C)C(=O)N[C@H](C(=O)N[C@@H](CCCNC(=N)N)C(=O)N[C@@H](CCC(N)=O)C(=O)N[C@@H](CCCNC(=N)N)C(=O)N[C@@H](Cc1ccc(O)cc1)C(N)=O)[C@@H](C)O [Compound 110, Y-Aib-E-G-T-F-T-S-D-Y-S-I-Aib-L-E-K-Q-A-Q-Aib-A-F-V-R-H-L-I-N-K(1,3)-Aib-T-R-Q-R-Y-NH2.C18DA-gGlu-gGlu-gGlu-gGlu-OEG(1,2)]
6 | 4800 µg/mL | CC[C@H](C)[C@H](NC(=O)[C@H](CC(C)C)NC(=O)[C@H](Cc1c[nH]cn1)NC(=O)[C@H](CCCNC(=N)N)NC(=O)[C@@H](NC(=O)[C@H](Cc1ccccc1)NC(=O)[C@H](C)NC(=O)C(C)(C)NC(=O)[C@H](CCC(N)=O)NC(=O)[C@H](C)NC(=O)[C@H](CCC(N)=O)NC(=O)[C@H](CCCCN)NC(=O)[C@H](CCC(=O)O)NC(=O)[C@H](CC(C)C)NC(=O)C(C)(C)NC(=O)[C@@H](NC(=O)[C@H](CO)NC(=O)[C@H](Cc1ccc(O)cc1)NC(=O)[C@H](CC(=O)O)NC(=O)[C@H](CO)NC(=O)[C@@H](NC(=O)[C@H](Cc1ccccc1)NC(=O)[C@@H](NC(=O)CNC(=O)[C@H](CCC(=O)O)NC(=O)C(C)(C)NC(=O)[C@@H](N)Cc1ccc(O)cc1)[C@@H](C)O)[C@@H](C)O)[C@@H](C)CC)C(C)C)C(=O)N[C@@H](CC(N)=O)C(=O)N[C@@H](CCCCNC(=O)COCCOCCNC(=O)COCCOCCNC(=O)CC[C@H](NC(=O)CC[C@H](NC(=O)CC[C@H](NC(=O)CC[C@H](NC(=O)CC[C@H](NC(=O)CCCCCCCCCCCCCCCCC(=O)O)C(=O)O)C(=O)O)C(=O)O)C(=O)O)C(=O)O)C(=O)NC(C)(C)C(=O)N[C@H](C(=O)N[C@@H](CCCNC(=N)N)C(=O)N[C@@H](CCC(N)=O)C(=O)N[C@@H](CCCNC(=N)N)C(=O)N[C@@H](Cc1ccc(O)cc1)C(N)=O)[C@@H](C)O [Compound 117, Y-Aib-E-G-T-F-T-S-D-Y-S-I-Aib-L-E-K-Q-A-Q-Aib-A-F-V-R-H-L-I-N-K(1,3)-Aib-T-R-Q-R-Y-NH2.C18DA-gGlu-gGlu-gGlu-gGlu-gGlu-OEG-OEG(1,2)]
